Measurements reported in PMC9596378, “Discovery and molecular basis of subtype-selective cyclophilin inhibitors” (Nature Chemical Biology, 2022).
Several values for one entry are separate records, joined by “and”; a condition that tells them apart may be missing. Identical values can stand only once. Like-named read-outs stand apart in the source and are kept apart here.

Tests used:
Assay in all cases: Chymotrypsin coupled prolyl-isomerase assay
CypD = CypD (Homo sapiens, UniProt P30405); conditions: for prolyl-isomerase activity (raw dose-response value): CypD
PPIL1 = target: T1, PPIL1 (Homo sapiens, UniProt Q9Y3C6); assay type: biochemical; conditions: for IC50: wild-type PPIL1, read-out: Wild-Type Cyclophilin Prolyl Isomerase Inhibition IC50 Values, PPIL1
T1 construct: PPIL1 (UniProtKB Entry Q9Y3C6: residues 1–166); made in house; host or cells: E. coli BL21(DE3)
T1 sequence (Q9Y3C6 1-166): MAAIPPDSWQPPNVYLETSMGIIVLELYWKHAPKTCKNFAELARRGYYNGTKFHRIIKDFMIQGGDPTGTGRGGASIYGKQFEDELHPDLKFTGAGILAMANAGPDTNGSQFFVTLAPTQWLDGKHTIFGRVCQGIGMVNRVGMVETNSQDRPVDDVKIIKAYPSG

PPWD1 = target: T2, PPWD1 (Homo sapiens, UniProt Q96BP3); assay type: biochemical; conditions: for IC50: wild-type PPWD1, read-out: Wild-Type Cyclophilin Prolyl Isomerase Inhibition IC50 Values, PPWD1; for prolyl-isomerase activity (raw dose-response value): in s^-1
T2 construct: PPWD1 (UniProtKB Entry Q96BP3: residues 473–646); host or cells: E. coli BL21(DE3)
T2 sequence (Q96BP3 473-646): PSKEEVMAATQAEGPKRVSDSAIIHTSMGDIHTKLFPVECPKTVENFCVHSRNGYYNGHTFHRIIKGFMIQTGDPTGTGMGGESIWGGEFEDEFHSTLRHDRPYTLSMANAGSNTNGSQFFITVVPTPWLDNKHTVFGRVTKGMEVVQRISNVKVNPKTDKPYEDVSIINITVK

[1] = read-out: Wild-Type Cyclophilin Prolyl Isomerase Inhibition IC50 Values, CypD, wild-type CypD

Chain of CypD (P30405 45-207): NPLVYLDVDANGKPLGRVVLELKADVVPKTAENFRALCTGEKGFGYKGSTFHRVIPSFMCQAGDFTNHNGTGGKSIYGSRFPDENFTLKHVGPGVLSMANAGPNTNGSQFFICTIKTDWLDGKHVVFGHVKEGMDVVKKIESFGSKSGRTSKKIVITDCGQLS

SMILES	CypD prolyl-isomerase inhibition (in words) (CypD)	IC50 (CypD; [1]) [µM]	IC50 (PPIL1) [µM]	IC50 (PPWD1) [µM]	IC50 (CypD) [µM]	prolyl-isomerase activity (raw dose-response value) (CypD; dose 0.0195312 µM)	prolyl-isomerase activity (raw dose-response value) (CypD; dose 0.0390625 µM)	prolyl-isomerase activity (raw dose-response value) (CypD; dose 0.078125 µM)	prolyl-isomerase activity (raw dose-response value) (CypD; dose 0.15625 µM)	prolyl-isomerase activity (raw dose-response value) (CypD; dose 0.3125 µM)	prolyl-isomerase activity (raw dose-response value) (CypD; dose 0.625 µM)	prolyl-isomerase activity (raw dose-response value) (CypD; dose 1.25 µM)	prolyl-isomerase activity (raw dose-response value) (CypD; dose 2.5 µM)	prolyl-isomerase activity (raw dose-response value) (PPIL1; PPIL1, dose 0.0228624 µM)	prolyl-isomerase activity (raw dose-response value) (PPIL1; PPIL1, dose 0.0685871 µM)	prolyl-isomerase activity (raw dose-response value) (PPIL1; PPIL1, dose 0.205761 µM)	prolyl-isomerase activity (raw dose-response value) (PPIL1; PPIL1, dose 0.617284 µM)	prolyl-isomerase activity (raw dose-response value) (PPIL1; PPIL1, dose 1.85185 µM)	prolyl-isomerase activity (raw dose-response value) (PPIL1; PPIL1, dose 5.55556 µM)	prolyl-isomerase activity (raw dose-response value) (PPIL1; PPIL1, dose 16.6667 µM)	further results
C[N+]1=C(C=CC=CC=C2N(CCCCCC(=O)NCCNC(=O)C3CCNC(=O)C=CC(=O)N4CCCC(Cc5ccccc5)(C4)C(=O)NC(Cc4ccc(-c5ccc(CC(C(=O)O)C(=O)O)cc5)cc4)C(=O)NCc4ccccc4CC(=O)N3)c3ccccc3C2(C)C)C(C)(C)c2ccccc21 (stereo not drawn) [*B52-Cy5]	do not inhibit CypD in vitro	> 10	> 10	> 10																	
C[N+]1=C(C=CC=CC=C2N(CCCCCC(=O)NCCNC(=O)C3CCNC(=O)C=CC(=O)N4CCCC(Cc5ccccc5)(C4)C(=O)NC(Cc4ccc(-c5ccc(C(CC(=O)O)CC(=O)O)cc5)cc4)C(=O)NCc4ccccc4CC(=O)N3)c3ccccc3C2(C)C)C(C)(C)c2ccccc21 (stereo not drawn) [*B53-Cy5]	do not inhibit CypD in vitro	> 10	> 10	> 10																	
NCCOCCNC(=O)[C@@H]1CCNC(=O)/C=C/C(=O)N2CCC[C@](Cc3ccccc3)(C2)C(=O)N[C@@H](Cc2ccc(C(=O)c3ccccc3)cc2)C(=O)NCc2ccccc2CC(=O)N1 [Compound B1]			0.2	1.4	0.04	0.0977 and 0.1005 and 0.09149	0.07882 and 0.0807 and 0.08119	0.05821 and 0.05418 and 0.05518	0.03845 and 0.03512 and 0.03854	0.0261 and 0.02523 and 0.02516	0.0197 and 0.01788 and 0.01929	0.01434 and 0.01347 and 0.01416	0.009932 and 0.009111 and 0.008108	0.0901 and 0.08843 and 0.1022	0.07658 and 0.07564 and 0.08071	0.05553 and 0.06081 and 0.06346	0.04442 and 0.03692 and 0.0407	0.02604 and 0.02534 and 0.024	0.01797 and 0.0175 and 0.01949	0.01539 and 0.0139 and 0.01238	prolyl-isomerase activity (raw dose-response value) (CypD; dose 0.00244141 µM): 0.1167 and 0.1009 and 0.132; prolyl-isomerase activity (raw dose-response value) (CypD; dose 0.00488281 µM): 0.1171 and 0.1006 and 0.1105; prolyl-isomerase activity (raw dose-response value) (CypD; dose 0.00976562 µM): 0.1045 and 0.1074 and 0.1165; prolyl-isomerase activity (raw dose-response value) (PPIL1; PPIL1, dose 50 µM): 0.01281 and 0.01627 and 0.01081; prolyl-isomerase activity (raw dose-response value) (PPWD1; PPWD1, dose 0.00244141 µM): 0.05276 and 0.05431 and 0.05271; prolyl-isomerase activity (raw dose-response value) (PPWD1; PPWD1, dose 0.00488281 µM): 0.05268 and 0.05435 and 0.05318; prolyl-isomerase activity (raw dose-response value) (PPWD1; PPWD1, dose 0.00976562 µM): 0.05613 and 0.05695 and 0.05468; prolyl-isomerase activity (raw dose-response value) (PPWD1; PPWD1, dose 0.0195312 µM): 0.05207 and 0.05349 and 0.04937; prolyl-isomerase activity (raw dose-response value) (PPWD1; PPWD1, dose 0.0390625 µM): 0.05208 and 0.05238 and 0.05082; prolyl-isomerase activity (raw dose-response value) (PPWD1; PPWD1, dose 0.078125 µM): 0.04871 and 0.04927 and 0.04631; prolyl-isomerase activity (raw dose-response value) (PPWD1; PPWD1, dose 0.15625 µM): 0.04828 and 0.0525 and 0.04634; prolyl-isomerase activity (raw dose-response value) (PPWD1; PPWD1, dose 0.3125 µM): 0.04787 and 0.04701 and 0.04264; prolyl-isomerase activity (raw dose-response value) (PPWD1; PPWD1, dose 0.625 µM): 0.04382 and 0.04097 and 0.03416; prolyl-isomerase activity (raw dose-response value) (PPWD1; PPWD1, dose 1.25 µM): 0.03009 and 0.02964 and 0.0254; prolyl-isomerase activity (raw dose-response value) (PPWD1; PPWD1, dose 2.5 µM): 0.02331 and 0.02391 and 0.0225
NCCOCCNC(=O)[C@@H]1CCNC(=O)/C=C/C(=O)N2CCC[C@](Cc3ccccc3)(C2)C(=O)N[C@@H](Cc2ccc(-c3ccccc3)cc2)C(=O)NCc2ccccc2CC(=O)N1 [Compound B2]			1.9	3.2	0.18	0.1243 and 0.1374 and 0.1472	0.1094 and 0.1294 and 0.1367	0.0906 and 0.1127 and 0.1064	0.06823 and 0.08697 and 0.08033	0.0483 and 0.05915 and 0.05559	0.03197 and 0.04004 and 0.03906	0.02117 and 0.02794 and 0.0263	0.0143 and 0.01947 and 0.02017	0.08321 and 0.1059 and 0.1063	0.0991 and 0.07246 and 0.09332	0.0916 and 0.08667 and 0.07563	0.08092 and 0.07121 and 0.1066	0.07438 and 0.05377 and 0.06473	0.04981 and 0.03892 and 0.03912	0.02881 and 0.02468 and 0.02483	prolyl-isomerase activity (raw dose-response value) (CypD; dose 5 µM): 0.01132 and 0.01248 and 0.01357; prolyl-isomerase activity (raw dose-response value) (PPIL1; PPIL1, dose 50 µM): 0.01705 and 0.01748 and 0.0139; prolyl-isomerase activity (raw dose-response value) (PPWD1; PPWD1, dose 0.00976562 µM): 0.06958 and 0.06894 and 0.06376; prolyl-isomerase activity (raw dose-response value) (PPWD1; PPWD1, dose 0.0195312 µM): 0.07052 and 0.06933 and 0.06942; prolyl-isomerase activity (raw dose-response value) (PPWD1; PPWD1, dose 0.0390625 µM): 0.07199 and 0.07365 and 0.06621; prolyl-isomerase activity (raw dose-response value) (PPWD1; PPWD1, dose 0.078125 µM): 0.0685 and 0.06494 and 0.06712; prolyl-isomerase activity (raw dose-response value) (PPWD1; PPWD1, dose 0.15625 µM): 0.06342 and 0.0629 and 0.06451; prolyl-isomerase activity (raw dose-response value) (PPWD1; PPWD1, dose 0.3125 µM): 0.06089 and 0.06073 and 0.06267; prolyl-isomerase activity (raw dose-response value) (PPWD1; PPWD1, dose 0.625 µM): 0.0549 and 0.05757 and 0.05993; prolyl-isomerase activity (raw dose-response value) (PPWD1; PPWD1, dose 1.25 µM): 0.05311 and 0.05273 and 0.05312; prolyl-isomerase activity (raw dose-response value) (PPWD1; PPWD1, dose 2.5 µM): 0.04134 and 0.04153 and 0.04427; prolyl-isomerase activity (raw dose-response value) (PPWD1; PPWD1, dose 5 µM): 0.03369 and 0.0291 and 0.03053; prolyl-isomerase activity (raw dose-response value) (PPWD1; PPWD1, dose 10 µM): 0.0224 and 0.02303 and 0.02481
C[N+]1=C(C=CC=CC=C2N(CCCCCC(=O)NCCNC(=O)C3CCNC(=O)C=CC(=O)N4CCCC(Cc5ccccc5)(C4)C(=O)NC(Cc4ccc(-c5ccc(CC(C(=O)O)C(=O)O)cc5)cc4)C(=O)NCc4ccccc4CC(=O)N3)c3ccccc3C2(C)C)C(C)(C)c2ccccc21 (stereo not drawn) [Compound B52-Cy5]		0.007	4	> 10																	
C[N+]1=C(C=CC=CC=C2N(CCCCCC(=O)NCCNC(=O)C3CCNC(=O)C=CC(=O)N4CCCC(Cc5ccccc5)(C4)C(=O)NC(Cc4ccc(-c5ccc(C(CC(=O)O)CC(=O)O)cc5)cc4)C(=O)NCc4ccccc4CC(=O)N3)c3ccccc3C2(C)C)C(C)(C)c2ccccc21 (stereo not drawn) [Compound B53-Cy5]		0.029	> 2	> 2																	
